Test results as given in PubChem BioAssay AID1508591.

Details: rat; liver microsomes; pH 7.4; 15.0 min; 1.0 µM

| SMILES | half-life |
| --- | --- |
| CC[C@@H](C)Nc1cc(C(=O)NC2CC3CCC(C2)N3c2ccc(C(=O)C3CC3)cn2)c(C)cc1C(N)=O (stereo not given in full) | 23.4 min |
| CCCn1cnc2cc(NCc3ccc(OC)cc3OC)ccc21 | 7.1 min |
| O=C(NCCN1CCOCC1)C1CC(=O)N(c2n[nH]c3cc(Br)ccc23)C1 (stereo not given) | > 30 min |
| NC(=O)C1CCN(c2nc(-c3ccccc3C(F)(F)F)cs2)CC1 | 5.58 min |
| Cc1ccccc1Nc1c(-c2ccccc2O)nc2sccn12 | 2.71 min |
| COc1ccc(CNc2ccc(S(=O)(=O)Nc3nccs3)cc2)cc1O | > 30 min |
| CNS(=O)(=O)c1cc(-c2nn3c(C)nnc3c3ccccc23)ccc1C | > 30 min |
| Nc1nc2c(s1)C(c1ccc(Br)cc1)CC(=O)N2 (stereo not given) | 23.8 min |
| O=C(NC1CCCc2c1cnn2-c1cccc(O)c1)c1ccccn1 (stereo not given) | 11.9 min |
| c1ccc(CNc2cc3c(cn2)CN(Cc2cccnc2)CCN3)cc1 | 15 min |
| Fc1cc(Nc2nc(-c3ccncc3)nc3ccccc23)ccc1-n1cncn1 | 13 min |
| Cc1cc(-c2nnc3n2CCCCC3)c(C)n1-c1cccnc1 | 15 min |
| COc1ccc(C(=O)NC2CCN(c3cnn(CC4CC4)c(=O)c3)CC2)cc1 | > 30 min |
| NC(=O)C1CCN(c2nc(-c3ccc(N4CCCCC4)nc3)cs2)CC1 | 17.2 min |
| Cc1cnc(NC(=O)c2ccc(-c3cccc([N+](=O)[O-])c3)o2)s1 | 10 min |
| N#C/C(=C\c1ccc(-c2ccc(C(=O)O)cc2)o1)c1nc2ccccc2[nH]1 | > 30 min |
| CCOC(=O)N1CCN(Cc2nc3c(c(=O)n(C)c(=O)n3C)n2Cc2cccc(C)c2)CC1 | 4.9 min |
| Nc1nccc2c1ncn2[C@@H]1C=C(CO)[C@@H](O)[C@H]1O | > 30 min |
| O=C(Nc1ccc(Cl)c(S(=O)(=O)N2CCOCC2)c1)c1ccc(S(=O)(=O)N2CCOCC2)cc1 | 6.4 min |
| COc1cccc(NCCC2(c3ccccc3)CC(C)(C)OC(C)(C)C2)c1 | 1.6 min |
| O=C(NCC1CCOCC1)C1CC(=O)N(c2n[nH]c3cc(Br)ccc23)C1 (stereo not given) | > 30 min |
| CCOC(=O)C1CCN(c2ncc(-c3ccc4c(c3)OCCCO4)s2)CC1 | 2.37 min |
| Cn1cc(Br)c(C2N=C(Nc3nc4ccccc4o3)NC3=C2C(=O)CCC3)n1 (stereo not given) | 8.5 min |
| CCOC(=O)c1cc(C)sc1NC(=O)c1ccc(Cl)s1 | 5.49 min |
| Cc1ccnc(NC(=S)N2CCN(c3ccccc3C(F)(F)F)CC2)c1 | 2 min |

| SMILES | half-life |
| --- | --- |
| COc1ccc(C2(C(=O)N3CCC(n4cc(-c5nc(C)no5)nn4)CC3)CC2)cc1 | 7.38 min |
| CCN(CC)S(=O)(=O)c1ccc(N2CCOCC2)c(NC(=O)c2[nH]c(C)c(C(C)=O)c2C)c1 | 5.49 min |
| Cc1cccc(-n2cnc3cc(C(=O)N4CCC(Br)CC4)ccc32)c1 | 2.5 min |
| CN1C(=O)CN=C(c2ccccc2Cl)c2cc(Cl)ccc21 | 3.04 min |
| COc1ccc2c(c1)/C(=C/c1cnc[nH]1)C(=O)N2 | > 30 min |
| O=C(c1ccc2c(c1)ncn2-c1cccc(Cl)c1)N1CCCCC1 | 5.83 min |
| N#Cc1ccc(C(=O)Nc2ccc(Cl)c(-c3nc4cc(Cl)ccc4o3)c2)c(F)c1 | > 30 min |
| CS(=O)(=O)CCNCc1ccc(-c2ccc3ncnc(Nc4ccc(OCc5cccc(F)c5)c(Cl)c4)c3c2)o1 | 7.65 min |
| CCOc1ccc(Nc2nc(C)c(NC(=O)c3ccc(C)cc3)c(Nc3ccc(OCC)cc3)n2)cc1 | 8.86 min |
| N#Cc1ccc(S(=O)(=O)Nc2cnccc2C(=O)Nc2nc(-c3ccccc3)cs2)cc1 | > 30 min |
| Cc1cc(-c2nnc3n2CCCCC3)c(C)n1-c1ccccc1 | 3.27 min |
| Cc1nc([C@](C)(O)CO)sc1-c1cnc(N)c(O[C@H](C)c2cc(F)ccc2-n2nccn2)c1 | 22.6 min |
| COc1cc(Cl)c(C)cc1NC(=O)CSc1ncc(S(=O)(=O)c2ccc(C(C)(C)C)cc2)c(=O)[nH]1 | 6.38 min |
| COc1ccc2oc(NC3=NC(c4[nH]ncc4Cl)C4=C(CCCC4=O)N3)nc2c1 (stereo not given) | 14.2 min |
| O=C(Nc1ccc(Cl)c(S(=O)(=O)N2CCOCC2)c1)c1ccc(S(=O)(=O)N2CCCCC2)cc1 | 3 min |
| COc1ccnc(NC(=S)N2CCN(c3ccccc3C(F)(F)F)CC2)c1 | 2.9 min |
| Cc1ccc(C)c(CN2CCC(CNC(=O)Nc3ccc(Br)cc3F)CC2)c1 | 3.58 min |
| O=C(Nc1ccc(C(=O)N2CCCC2)cc1)c1ccccc1F | > 30 min |
| COc1ccc(CN2CCc3nc(N4CCN(c5ccc(F)cc5)CC4)ncc3C2)c(OC)c1OC | 1.65 min |
| COc1ccc(-n2nc(C3CCCN(C(=O)C4CC4)C3)[nH]c2=O)cc1 (stereo not given) | > 30 min |
| CCOC(=O)c1ccc(NC(=O)CSc2nc3c(cc2C#N)N2CCC3CC2)cc1 | 4.26 min |
| Nc1ccccc1CNc1ccc(S(=O)(=O)Nc2nccs2)cc1 | > 30 min |
| CCOC(=O)[C@H]1O[C@H]1C(=O)N[C@@H](CC(C)C)C(=O)NCCC(C)C | 1.48 min |
| COc1cccc(CC(=O)Nc2nc(-c3ccc4c(c3)CCN4C(=O)c3ccccc3C)c(C)s2)c1 | 19 min |
| C=C[C@]1(C)C[C@@H](OC(=O)CSC(C)(C)CNC(=O)[C@H](N)C(C)C)[C@]2(C)[C@H](C)CC[C@]3(CCC(=O)[C@H]32)[C@@H](C)[C@@H]1O | 2.06 min |

| SMILES | half-life |
| --- | --- |
| Fc1ccccc1CNCc1ccc(-c2ccnc3[nH]ccc23)cc1 | 1.47 min |
| CC(C)(C)CN1CCNc2cc(Nc3ccccc3)ncc2C1 | 1.64 min |
| NC(=O)C1CCN(c2nc(-c3ccccc3N)cs2)CC1 | 25.3 min |
| Brc1ccc(-c2csc(N3CCOCC3)n2)cc1 | 2.48 min |
| Cc1ncc2c(c1CNC(=O)Cn1cnc3ccccc3c1=O)CCNC2 | > 30 min |
| CCn1c(C)c(C(C)=O)c(C)c1C(=O)Nc1cccc([S+](=O)([O-])N(C)C)c1 | 6.5 min |
| Cc1ccccc1CN1C2=NCCN2C(=O)C2=C1CCN(Cc1ccccc1)C2 | 6.82 min |
| CCCC1=Nc2cc(C(=O)NC3CCCC3)ccc2Sc2ccc(C)cc21 | 1.41 min |
| Cc1nn(CCc2nc(-c3ccccc3)cs2)c2[nH]c(=O)cc(C(F)(F)F)c12 | 10.3 min |
| O=[S+]([O-])(Nc1ccc(-c2ccccc2)cc1)c1ccc(NCc2ccc(Cl)cc2O)cc1 | 18 min |
| Cc1ccc(S(=O)(=O)NCc2ccccc2)cc1 | 1 min |
| NC1(c2ccc(NC(=O)c3ccnc(-c4cc(C(=O)O)ccn4)c3)cc2)CC1 | > 30 min |
| Cc1c(O)ccc2c1OC(C)(C)CC2 | 3.9 min |
| COc1ccc(-c2noc(CSc3nnc(Cc4ccccc4)n3-c3ccc(F)cc3)n2)cc1 | 1.69 min |
| CCn1c(=O)cc(OCC(=O)N2CCN(c3cccc(Cl)c3)CC2)c2ccccc21 | 2.66 min |
| CCCCN(CC)CCCNC(=O)c1ccc2c(c1)N(Cc1ccc(C)cc1)C(=O)c1ccccc1S2 | 4.06 min |
| Cc1cc(-c2nnc3n2CCCCC3)c(C)n1-c1cccc(C#N)c1 | 8.1 min |
| NC(=O)C1CCN(c2nc(-c3cccc([N+](=O)[O-])c3)cs2)CC1 | 2.3 min |
| Nc1nc2c(s1)C(c1cccc(F)c1F)CC(=O)N2 (stereo not given) | > 30 min |
| NC(=O)C1CCN(c2nccc(-c3ccc4c(c3)OCCCO4)n2)CC1 | 4.28 min |
| Nc1c(C(=O)Nc2ccc(Cl)c(C(F)(F)F)c2)sc2nc3c(cc12)N1CCC3CC1 | 22.1 min |
| O=[S+]([O-])(Nc1ccc(N2CCNCC2)cc1)c1ccc(NCc2cccc(Cl)c2O)cc1 | > 30 min |
| CCCNC(=O)Nc1ccc(Oc2ncnc3cc(OC)c(OC)cc23)cc1Cl | > 30 min |
| O=C(c1ccc2c(c1)ncn2-c1ccc(C(F)(F)F)cc1)N1CCCCC1 | 7.6 min |
| NC(=O)C1CCN(c2nc(-c3ccc(C(F)(F)F)cc3)cs2)CC1 | 5.39 min |
